These molecules were tested against T1, human PAH with the R408W mutation (Homo sapiens, UniProt P00439, R408W) (assay: Cell Based Phenylalanine Flux Assay). Conditions: A375 cells expressing human R408W PAH; 24 hrs compound incubation; 13C-Tyrosine by LC-MS; average where tested multiple times; read-out: AC50.
T1 construct: expressed in transfected cells
T1 sequence (P00439 1-452 R408W): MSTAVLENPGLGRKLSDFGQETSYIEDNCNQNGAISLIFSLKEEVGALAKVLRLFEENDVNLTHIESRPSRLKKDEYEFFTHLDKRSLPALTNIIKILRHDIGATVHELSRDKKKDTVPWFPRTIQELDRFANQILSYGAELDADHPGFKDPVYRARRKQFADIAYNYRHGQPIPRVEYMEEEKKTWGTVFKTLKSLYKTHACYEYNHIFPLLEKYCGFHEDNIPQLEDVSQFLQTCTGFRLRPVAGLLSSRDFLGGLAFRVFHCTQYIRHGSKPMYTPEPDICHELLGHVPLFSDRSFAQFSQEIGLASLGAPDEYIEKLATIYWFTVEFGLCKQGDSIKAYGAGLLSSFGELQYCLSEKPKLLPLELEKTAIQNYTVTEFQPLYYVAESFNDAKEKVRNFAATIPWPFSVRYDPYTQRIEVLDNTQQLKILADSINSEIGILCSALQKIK
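Note: after compound treatment, cells received sepiapterin plus isotope-labelled Phenylalanine for 4 hours, then labelled Tyrosine in the medium was quantified, 10-point 2-fold dilution series run in duplicate.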

AC50 [nM] | Structure (SMILES)
> 5000 | Cc1cccc2cc([C@H]3c4nc[nH]c4CCN3C(=O)c3nnc(-c4ccn(C(F)F)n4)o3)nn12 [Example 937, (R)-(5-(1-(difluoromethyl)-1H-pyrazol-3-yl)-1,3,4-oxadiazol-2-yl)(4-(7-methylpyrazolo[1,5-a]pyridin-2-yl)-6,7-dihydro-1H-imidazo[4,5-c]pyridin-5(4H)-yl)methanone]
< 500 | Cc1cccc2cc([C@@H]3c4nc[nH]c4CCN3C(=O)c3nnc(C(C)(C)F)o3)nn12 [Example 938, (S)-(5-(2-fluoropropan-2-yl)-1,3,4-oxadiazol-2-yl)(4-(7-methylpyrazolo[1,5-a]pyridin-2-yl)-6,7-dihydro-1H-imidazo[4,5-c]pyridin-5(4H)-yl)methanone]
500 to 1000 | Cc1cccc2cc([C@@H]3c4nc[nH]c4CCN3C(=O)c3nnc(C4CC4)o3)nn12 [Example 940, (S)-(5-cyclopropyl-1,3,4-oxadiazol-2-yl)(4-(7-methylpyrazolo[1,5-a]pyridin-2-yl)-6,7-dihydro-1H-imidazo[4,5-c]pyridin-5(4H)-yl)methanone]
> 5000 | Cc1cccc2cc([C@H]3c4nc[nH]c4CCN3C(=O)c3nnc(C4CC4)o3)nn12 [Example 941, (R)-(5-cyclopropyl-1,3,4-oxadiazol-2-yl)(4-(7-methylpyrazolo[1,5-a]pyridin-2-yl)-6,7-dihydro-1H-imidazo[4,5-c]pyridin-5(4H)-yl)methanone]
< 500 | O=C(c1nnc(C2CC2)o1)N1CCc2[nH]cnc2[C@H]1c1cc2c(C(F)(F)F)cccn2n1 [Example 942, (S)-(5-cyclopropyl-1,3,4-oxadiazol-2-yl)(4-(4-(trifluoromethyl)pyrazolo[1,5-a]pyridin-2-yl)-6,7-dihydro-1H-imidazo[4,5-c]pyridin-5(4H)-yl)methanone]
> 5000 | O=C(c1nnc(C2CC2)o1)N1CCc2[nH]cnc2[C@@H]1c1cc2c(C(F)(F)F)cccn2n1 [Example 943, (R)-(5-cyclopropyl-1,3,4-oxadiazol-2-yl)(4-(4-(trifluoromethyl)pyrazolo[1,5-a]pyridin-2-yl)-6,7-dihydro-1H-imidazo[4,5-c]pyridin-5(4H)-yl)methanone]
500 to 1000 | Cc1nnc(C(=O)N2CCc3[nH]cnc3[C@H]2c2cc3c(C(F)(F)F)cccn3n2)o1 [Example 944, (S)-(5-methyl-1,3,4-oxadiazol-2-yl)(4-(4-(trifluoromethyl)pyrazolo[1,5-a]pyridin-2-yl)-6,7-dihydro-1H-imidazo[4,5-c]pyridin-5(4H)-yl)methanone]
> 5000 | Cc1nnc(C(=O)N2CCc3[nH]cnc3[C@@H]2c2cc3c(C(F)(F)F)cccn3n2)o1 [Example 945, (R)-(5-methyl-1,3,4-oxadiazol-2-yl)(4-(4-(trifluoromethyl)pyrazolo[1,5-a]pyridin-2-yl)-6,7-dihydro-1H-imidazo[4,5-c]pyridin-5(4H)-yl)methanone]
< 500 | O=C(c1nnc(C2CC2)o1)N1CCc2[nH]cnc2[C@H]1c1cc2c(F)cccn2n1 [Example 946, (S)-(5-cyclopropyl-1,3,4-oxadiazol-2-yl)(4-(4-fluoropyrazolo[1,5-a]pyridin-2-yl)-6,7-dihydro-1H-imidazo[4,5-c]pyridin-5(4H)-yl)methanone]
> 5000 | O=C(c1nnc(C2CC2)o1)N1CCc2[nH]cnc2[C@@H]1c1cc2c(F)cccn2n1 [Example 947, (R)-(5-cyclopropyl-1,3,4-oxadiazol-2-yl)(4-(4-fluoropyrazolo[1,5-a]pyridin-2-yl)-6,7-dihydro-1H-imidazo[4,5-c]pyridin-5(4H)-yl)methanone]
< 500 | CC(C)(C)c1nnc(C(=O)N2CCc3[nH]cnc3[C@H]2c2cc3c(C(F)(F)F)cccn3n2)o1 [Example 948, (S)-(5-(tert-butyl)-1,3,4-oxadiazol-2-yl)(4-(4-(trifluoromethyl)pyrazolo[1,5-a]pyridin-2-yl)-6,7-dihydro-1H-imidazo[4,5-c]pyridin-5(4H)-yl)methanone]
1000 to 5000 | CC(C)(C)c1nnc(C(=O)N2CCc3[nH]cnc3[C@@H]2c2cc3c(C(F)(F)F)cccn3n2)o1 [Example 949, (R)-(5-(tert-butyl)-1,3,4-oxadiazol-2-yl)(4-(4-(trifluoromethyl)pyrazolo[1,5-a]pyridin-2-yl)-6,7-dihydro-1H-imidazo[4,5-c]pyridin-5(4H)-yl)methanone]
< 500 | CC(C)(F)c1nnc(C(=O)N2CCc3[nH]cnc3[C@H]2c2cc3c(C(F)(F)F)cccn3n2)o1 [Example 950, (S)-(5-(2-fluoropropan-2-yl)-1,3,4-oxadiazol-2-yl)(4-(4-(trifluoromethyl)pyrazolo[1,5-a]pyridin-2-yl)-6,7-dihydro-1H-imidazo[4,5-c]pyridin-5(4H)-yl)methanone]
1000 to 5000 | CC(C)(F)c1nnc(C(=O)N2CCc3[nH]cnc3[C@@H]2c2cc3c(C(F)(F)F)cccn3n2)o1 [Example 951, (R)-(5-(2-fluoropropan-2-yl)-1,3,4-oxadiazol-2-yl)(4-(4-(trifluoromethyl)pyrazolo[1,5-a]pyridin-2-yl)-6,7-dihydro-1H-imidazo[4,5-c]pyridin-5(4H)-yl)methanone]
500 to 1000 | Cn1cc(-c2nnc(C(=O)N3CCc4[nH]cnc4[C@H]3c3cc4cccc(C(F)(F)F)n4n3)o2)cn1 [Example 952, (S)-(5-(1-methyl-1H-pyrazol-4-yl)-1,3,4-oxadiazol-2-yl)(4-(7-(trifluoromethyl)pyrazolo[1,5-a]pyridin-2-yl)-6,7-dihydro-1H-imidazo[4,5-c]pyridin-5(4H)-yl)methanone]
1000 to 5000 | Cn1cc(-c2nnc(C(=O)N3CCc4[nH]cnc4[C@@H]3c3cc4cccc(C(F)(F)F)n4n3)o2)cn1 [Example 953, (R)-(5-(1-methyl-1H-pyrazol-4-yl)-1,3,4-oxadiazol-2-yl)(4-(7-(trifluoromethyl)pyrazolo[1,5-a]pyridin-2-yl)-6,7-dihydro-1H-imidazo[4,5-c]pyridin-5(4H)-yl)methanone]
< 500 | Cc1c(-c2nnc(C(=O)N3CCc4[nH]cnc4[C@H]3c3cc4c(F)cccn4n3)o2)cnn1C [Example 954, (S)-(5-(1,5-dimethyl-1H-pyrazol-4-yl)-1,3,4-oxadiazol-2-yl)(4-(4-fluoropyrazolo[1,5-a]pyridin-2-yl)-6,7-dihydro-1H-imidazo[4,5-c]pyridin-5(4H)-yl)methanone]
> 5000 | Cc1c(-c2nnc(C(=O)N3CCc4[nH]cnc4[C@@H]3c3cc4c(F)cccn4n3)o2)cnn1C [Example 955, (R)-(5-(1,5-dimethyl-1H-pyrazol-4-yl)-1,3,4-oxadiazol-2-yl)(4-(4-fluoropyrazolo[1,5-a]pyridin-2-yl)-6,7-dihydro-1H-imidazo[4,5-c]pyridin-5(4H)-yl)methanone]
> 5000 | Cc1cccn2nc([C@H]3c4nc[nH]c4CCN3C(=O)c3nnc(-c4cnccn4)o3)cc12 [Example 956, (R)-(4-(4-methylpyrazolo[1,5-a]pyridin-2-yl)-6,7-dihydro-1H-imidazo[4,5-c]pyridin-5(4H)-yl)(5-(pyrazin-2-yl)-1,3,4-oxadiazol-2-yl)methanone]
< 500 | Cc1cccn2nc([C@@H]3c4nc[nH]c4CCN3C(=O)c3nnc(-c4cnccn4)o3)cc12 [Example 957, (S)-(4-(4-methylpyrazolo[1,5-a]pyridin-2-yl)-6,7-dihydro-1H-imidazo[4,5-c]pyridin-5(4H)-yl)(5-(pyrazin-2-yl)-1,3,4-oxadiazol-2-yl)methanone]
1000 to 5000 | O=C(c1ocnc1C(F)F)N1CCc2[nH]cnc2[C@@H]1c1cc2cccc(Cl)n2n1 [Example 959, (R)-(4-(7-chloropyrazolo[1,5-a]pyridin-2-yl)-6,7-dihydro-1H-imidazo[4,5-c]pyridin-5(4H)-yl)(4-(difluoromethyl)oxazol-5-yl)methanone]
500 to 1000 | CC(C)(O)c1nc(C(F)F)c(C(=O)N2CCc3[nH]cnc3[C@H]2c2cc3cccc(Cl)n3n2)o1 [Example 960, (S)-(4-(7-chloropyrazolo[1,5-a]pyridin-2-yl)-6,7-dihydro-1H-imidazo[4,5-c]pyridin-5(4H)-yl)(4-(difluoromethyl)-2-(2-hydroxypropan-2-yl)oxazol-5-yl)methanone]
1000 to 5000 | CC(C)(O)c1nc(C(F)F)c(C(=O)N2CCc3[nH]cnc3[C@@H]2c2cc3cccc(Cl)n3n2)o1 [Example 961, (R)-(4-(7-chloropyrazolo[1,5-a]pyridin-2-yl)-6,7-dihydro-1H-imidazo[4,5-c]pyridin-5(4H)-yl)(4-(difluoromethyl)-2-(2-hydroxypropan-2-yl)oxazol-5-yl)methanone]
> 5000 | O=C(c1nnc(-c2cnccn2)o1)N1CCc2[nH]cnc2[C@@H]1c1cc2c(F)cccn2n1 [Example 963, (R)-(4-(4-fluoropyrazolo[1,5-a]pyridin-2-yl)-6,7-dihydro-1H-imidazo[4,5-c]pyridin-5(4H)-yl)(5-(pyrazin-2-yl)-1,3,4-oxadiazol-2-yl)methanone]
< 500 | O=C(c1nnc(-c2ccn(C(F)F)n2)o1)N1CCc2[nH]cnc2[C@H]1c1cc2cccc(Cl)n2n1 [Example 964, (S)-(4-(7-chloropyrazolo[1,5-a]pyridin-2-yl)-6,7-dihydro-1H-imidazo[4,5-c]pyridin-5(4H)-yl)(5-(1-(difluoromethyl)-1H-pyrazol-3-yl)-1,3,4-oxadiazol-2-yl)methanone]
> 5000 | O=C(c1nnc(-c2ccn(C(F)F)n2)o1)N1CCc2[nH]cnc2[C@@H]1c1cc2cccc(Cl)n2n1 [Example 965, (R)-(4-(7-chloropyrazolo[1,5-a]pyridin-2-yl)-6,7-dihydro-1H-imidazo[4,5-c]pyridin-5(4H)-yl)(5-(1-(difluoromethyl)-1H-pyrazol-3-yl)-1,3,4-oxadiazol-2-yl)methanone]
